The record followed here is ChEMBL document CHEMBL1134520, “Potent somatostatin undecapeptide agonists selective for somatostatin receptor 1 (sst1)” (J Med Chem, 2001).

The target of assay [1] is Somatostatin receptor type 1 (Homo sapiens, UniProt P30872). As to the kind of experiment: Tested for ability to bind to 20 uM thick cryostat sections of a membrane pellet of cells transfected with human cloned somatostatin (sst) receptor subtype 1.
The target in assay [2] is Somatostatin receptor type 4 (Homo sapiens, UniProt P31391). As to the kind of experiment: Tested for ability to bind to 20 uM thick cryostat sections of a membrane pellet of cells transfected with human cloned somatostatin (sst) receptor subtype 4.
Assay [3] addresses Somatostatin receptor type 5 (Homo sapiens, UniProt P35346). The assay can be described thus: Tested for ability to bind to 20 uM thick cryostat sections of a membrane pellet of cells transfected with human cloned somatostatin (sst) receptor subtype 5.
The target of assay [4] is Somatostatin receptor type 2 (Homo sapiens, UniProt P30874). The assay can be described thus: Tested for ability to bind to 20 uM thick cryostat sections of a membrane pellet of cells transfected with human cloned somatostatin (sst) receptor subtype 2.
Assay [5] addresses Somatostatin receptor type 3 (Homo sapiens, UniProt P32745). As to the kind of experiment: Tested for ability to bind to 20 uM thick cryostat sections of a membrane pellet of cells transfected with human cloned somatostatin (sst) receptor subtype 3.

Numbered stars: 1 amine (or outer) side, 2 acyl side, 3 side chain; on linkers, the order of the positions; unused ones are H or OH. Bridge positions count the residues as written; N and C are the ends. Square brackets hold non-standard residues; d marks the D form. Peptide text beside a SMILES is read from it. Phe(4-NO2) = N[C@@H](Cc1ccc([N+](=O)[O-])cc1)C(=O)O; Phe(4-CH2NHiPr) = CC(C)NCc1ccc(C[C@H](N)C(=O)O)cc1; X1 = CC(C)CNCc1ccc(C[C@H](N[*:1])C(=O)[*:2])cc1; Phe(4-CH2NH2) = NCc1ccc(C[C@H](N)C(=O)O)cc1; d2Nal = N[C@H](Cc1ccc2ccccc2c1)C(=O)O

Somatostatin receptor type 1, sequence (P30872 whole entry): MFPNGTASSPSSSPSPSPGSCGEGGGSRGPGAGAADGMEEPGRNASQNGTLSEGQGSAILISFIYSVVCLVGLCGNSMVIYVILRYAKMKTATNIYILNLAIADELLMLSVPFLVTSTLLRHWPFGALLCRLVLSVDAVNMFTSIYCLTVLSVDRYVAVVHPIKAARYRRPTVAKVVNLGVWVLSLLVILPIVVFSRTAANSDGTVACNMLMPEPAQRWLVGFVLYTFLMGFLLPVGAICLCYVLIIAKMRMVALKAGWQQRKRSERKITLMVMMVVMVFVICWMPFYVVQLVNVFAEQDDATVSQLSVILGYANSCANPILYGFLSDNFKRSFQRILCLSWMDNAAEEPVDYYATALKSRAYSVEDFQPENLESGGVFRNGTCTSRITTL
Somatostatin receptor type 3, sequence (P32745 whole entry): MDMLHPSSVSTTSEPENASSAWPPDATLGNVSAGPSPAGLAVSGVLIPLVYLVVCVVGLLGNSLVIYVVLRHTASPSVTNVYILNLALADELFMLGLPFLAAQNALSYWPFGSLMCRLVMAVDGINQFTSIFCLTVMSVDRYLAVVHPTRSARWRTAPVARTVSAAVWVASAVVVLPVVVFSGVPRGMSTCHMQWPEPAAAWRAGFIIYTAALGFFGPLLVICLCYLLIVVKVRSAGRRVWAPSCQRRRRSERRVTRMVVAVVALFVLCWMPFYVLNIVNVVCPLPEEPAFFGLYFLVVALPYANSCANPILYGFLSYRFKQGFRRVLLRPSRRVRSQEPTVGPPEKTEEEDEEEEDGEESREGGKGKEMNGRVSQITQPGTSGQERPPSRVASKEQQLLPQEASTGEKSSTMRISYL
Somatostatin receptor type 5, sequence (P35346 whole entry): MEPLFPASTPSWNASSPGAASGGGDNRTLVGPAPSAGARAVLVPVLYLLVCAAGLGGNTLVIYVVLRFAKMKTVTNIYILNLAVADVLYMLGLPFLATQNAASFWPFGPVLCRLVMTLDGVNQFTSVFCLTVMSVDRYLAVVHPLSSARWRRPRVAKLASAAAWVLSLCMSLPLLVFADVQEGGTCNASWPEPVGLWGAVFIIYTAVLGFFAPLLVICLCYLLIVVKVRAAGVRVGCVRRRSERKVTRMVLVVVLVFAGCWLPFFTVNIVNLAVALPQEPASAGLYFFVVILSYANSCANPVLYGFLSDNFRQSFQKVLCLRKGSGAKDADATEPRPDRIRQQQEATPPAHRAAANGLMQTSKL
Somatostatin receptor type 4, sequence (P31391 whole entry): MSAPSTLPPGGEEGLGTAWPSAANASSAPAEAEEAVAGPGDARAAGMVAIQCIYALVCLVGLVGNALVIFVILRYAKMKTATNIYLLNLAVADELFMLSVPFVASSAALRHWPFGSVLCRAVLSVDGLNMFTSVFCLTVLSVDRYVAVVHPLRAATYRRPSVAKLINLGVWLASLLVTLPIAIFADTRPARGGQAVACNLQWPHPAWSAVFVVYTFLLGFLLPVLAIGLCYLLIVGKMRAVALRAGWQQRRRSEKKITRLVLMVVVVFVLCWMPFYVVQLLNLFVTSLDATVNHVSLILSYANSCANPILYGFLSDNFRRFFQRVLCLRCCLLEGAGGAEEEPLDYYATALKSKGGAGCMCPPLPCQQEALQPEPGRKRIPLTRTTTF
Somatostatin receptor type 2, sequence (P30874 whole entry): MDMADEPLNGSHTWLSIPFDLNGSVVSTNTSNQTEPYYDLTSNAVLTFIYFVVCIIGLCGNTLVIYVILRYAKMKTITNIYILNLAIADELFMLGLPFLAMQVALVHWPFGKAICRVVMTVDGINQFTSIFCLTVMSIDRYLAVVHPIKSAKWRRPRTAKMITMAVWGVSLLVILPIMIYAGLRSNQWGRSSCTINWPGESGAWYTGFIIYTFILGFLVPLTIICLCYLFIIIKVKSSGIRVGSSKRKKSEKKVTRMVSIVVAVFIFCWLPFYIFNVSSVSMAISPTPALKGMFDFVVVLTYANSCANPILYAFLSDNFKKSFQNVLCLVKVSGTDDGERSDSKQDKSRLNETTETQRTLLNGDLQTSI

Turning to `CC(C)NCc1ccc(C[C@@H]2NC(=O)[C@@H](Cc3c[nH]c4ccccc34)NC(=O)[C@H](Cc3ccccc3)NC(=O)[C@H](Cc3ccccc3)NC(=O)[C@H](CC(N)=O)NC(=O)[C@H](CCCCN)NC(=O)[C@@H](N)CSSC[C@@H](C(=O)O)NC(=O)[C@H](CO)NC(=O)[C@H]([C@@H](C)O)NC(=O)[C@H](Cc3ccccc3)NC(=O)[C@H]([C@@H](C)O)NC2=O)cc1` (H-CKNFF[dW][Phe(4-CH2NHiPr)]TFTSC-OH; disulfide 1-12), the IC50 in assay [1] was 443 nM; in assay [2], greater than 10000 nM; in assay [3], greater than 10000 nM; in assay [4], greater than 1000 nM; in assay [5], greater than 10000 nM.

On to `CC(C)NCc1ccc(C[C@@H]2NC(=O)[C@@H](Cc3c[nH]c4ccccc34)NC(=O)[C@H](Cc3ccc(O)cc3)NC(=O)[C@H](Cc3ccccc3)NC(=O)[C@H](CCCCN)NC(=O)[C@@H](N)CSSC[C@@H](C(=O)O)NC(=O)[C@H](CO)NC(=O)[C@H]([C@@H](C)O)NC(=O)[C@H](Cc3ccccc3)NC(=O)[C@H]([C@@H](C)O)NC2=O)cc1`, for which the IC50 is 530 nM in assay [1]; greater than 10000 nM in assay [2]; greater than 1000 nM in assay [3]; greater than 10000 nM in assay [4]; greater than 10000 nM in assay [5].

On to `CC(C)NCc1ccc(C[C@@H]2NC(=O)[C@@H](Cc3ccc4ccccc4c3)NC(=O)[C@H](Cc3ccccc3)NC(=O)[C@H](Cc3ccccc3)NC(=O)[C@H](CCCCN)NC(=O)[C@H](NC(=O)CCc3ccc(O)cc3)CSSC[C@H](C(=O)O)NC(=O)[C@H](CO)NC(=O)[C@H]([C@@H](C)O)NC(=O)[C@H](Cc3ccccc3)NC(=O)[C@H]([C@@H](C)O)NC2=O)cc1`, for which the IC50 in assay [1], in assay [2], in assay [3], in assay [4] and in assay [5] was greater than 1000 nM throughout.

For the compound `CC(C)NCc1ccc(C[C@@H]2NC(=O)[C@@H](Cc3ccc4ccccc4c3)NC(=O)[C@H](Cc3ccccc3)NC(=O)[C@H](Cc3ccccc3)NC(=O)[C@H](CCCCN)NC(=O)[C@@H](N)CSSC[C@@H](C(=O)O)NC(=O)[C@H](CO)NC(=O)[C@H]([C@@H](C)O)NC(=O)[C@H](Cc3ccccc3)NC(=O)[C@H]([C@@H](C)O)NC2=O)cc1` (H-CKFF[d2Nal][Phe(4-CH2NHiPr)]TFTSC-OH; disulfide 1-11), the IC50 was 103 nM in assay [1]; greater than 1000 nM in assay [2]; greater than 10000 nM in assay [3]; greater than 1000 nM in assay [4]; greater than 1000 nM in assay [5].

Turning to `C[C@@H](O)[C@@H]1NC(=O)[C@H](Cc2ccccc2)NC(=O)[C@H]([C@@H](C)O)NC(=O)[C@H](CCCCN)NC(=O)[C@@H](Cc2c[nH]c3ccccc23)NC(=O)[C@H](Cc2ccccc2)NC(=O)[C@H](Cc2ccccc2)NC(=O)[C@H](CC(N)=O)NC(=O)[C@H](CCCCN)NC(=O)[C@@H](N)CSSC[C@@H](C(=O)O)NC(=O)[C@H](CO)NC1=O`, the IC50 in assay [1] turned out to be 5.4 nM; in assay [2], 3.5 nM; in assay [3], 16.7 nM; in assay [4], 0.33 nM; in assay [5], 4.3 nM.

Turning to `CNCc1ccc(C[C@@H]2NC(=O)[C@@H](Cc3ccc4ccccc4c3)NC(=O)[C@H](Cc3ccccc3)NC(=O)[C@H](Cc3ccccc3)NC(=O)[C@H](CCCCN)NC(=O)[C@@H](N)CSSC[C@@H](C(=O)O)NC(=O)[C@H](CO)NC(=O)[C@H]([C@@H](C)O)NC(=O)[C@H](Cc3ccccc3)NC(=O)[C@H]([C@@H](C)O)NC2=O)cc1`, the IC50 in assay [1] is 101 nM; in assay [2], greater than 10000 nM; in assay [3], greater than 1000 nM; in assay [4], 556 nM; in assay [5], 280 nM.

On to `CC(C)NCc1ccc(C[C@@H]2NC(=O)[C@@H](Cc3ccc4ccccc4c3)NC(=O)[C@H](Cc3ccccc3)NC(=O)[C@H](Cc3ccccc3)NC(=O)[C@H](CCCCN)NC(=O)[C@@H](NC(=O)[C@@H](N)Cc3ccc(O)cc3)CSSC[C@@H](C(=O)O)NC(=O)[C@H](CO)NC(=O)[C@H]([C@@H](C)O)NC(=O)[C@H](Cc3ccccc3)NC(=O)[C@H]([C@@H](C)O)NC2=O)cc1`, for which the IC50 in assay [1] is 24 nM; in assay [2], greater than 1000 nM; in assay [3], greater than 1000 nM; in assay [4] it was greater than 1000 nM; in assay [5] it was 633 nM.

Turning to `C[C@@H](O)[C@@H]1NC(=O)[C@H](Cc2ccccc2)NC(=O)[C@H]([C@@H](C)O)NC(=O)[C@H](Cc2ccc(CN)cc2)NC(=O)[C@@H](Cc2c[nH]c3ccccc23)NC(=O)[C@H](Cc2ccccc2)NC(=O)[C@H](Cc2ccccc2)NC(=O)[C@H](CCCCN)NC(=O)[C@@H](N)CSSC[C@@H](C(=O)O)NC(=O)[C@H](CO)NC1=O` (H-CKFF[dW][Phe(4-CH2NH2)]TFTSC-OH; disulfide 1-11), the IC50 in assay [1] is 309 nM; in assay [2] it was 267 nM; in assay [3], 190 nM; in assay [4] it was 213 nM; in assay [5] it was 273 nM.

As to `CC(C)NCc1ccc(C[C@@H]2NC(=O)[C@@H](Cc3c[nH]c4ccccc34)NC(=O)[C@H](Cc3ccccc3)NC(=O)[C@H](Cc3ccccc3)NC(=O)[C@H](CCCCN)NC(=O)[C@@H](N)CSSC[C@@H](C(=O)O)NC(=O)[C@@H](CO)NC(=O)[C@H]([C@@H](C)O)NC(=O)[C@H](Cc3ccccc3)NC(=O)[C@H]([C@@H](C)O)NC2=O)cc1` (H-CKFF[dW][Phe(4-CH2NHiPr)]TFT[dS]C-OH; disulfide 1-11), the IC50 is 187 nM in assay [1]; greater than 1000 nM in assay [2]; greater than 1000 nM in assay [3]; greater than 10000 nM in assay [4]; greater than 1000 nM in assay [5].

Turning to `CC(C)NCc1ccc(C[C@@H]2NC(=O)[C@@H](Cc3ccc4ccccc4c3)NC(=O)[C@H](Cc3ccc([N+](=O)[O-])cc3)NC(=O)[C@H](Cc3ccccc3)NC(=O)[C@H](CCCCN)NC(=O)[C@@H](N)CSSC[C@@H](C(=O)O)NC(=O)[C@H](CO)NC(=O)[C@H]([C@@H](C)O)NC(=O)[C@H](Cc3ccccc3)NC(=O)[C@H]([C@@H](C)O)NC2=O)cc1` (H-CKF[Phe(4-NO2)][d2Nal][Phe(4-CH2NHiPr)]TFTSC-OH; disulfide 1-11), the IC50 in assay [1] was 35 nM; in assay [2], greater than 1000 nM; in assay [3] it was greater than 1000 nM; in assay [4], greater than 1000 nM; in assay [5] it was 975 nM.

For the compound `CC(C)CNCc1ccc(C[C@@H]2NC(=O)[C@@H](Cc3c[nH]c4ccccc34)NC(=O)[C@H](Cc3ccccc3)NC(=O)[C@H](Cc3ccccc3)NC(=O)[C@H](CCCCN)NC(=O)[C@@H](N)CSSC[C@@H](C(=O)O)NC(=O)[C@H](CO)NC(=O)[C@H]([C@@H](C)O)NC(=O)[C@H](Cc3ccccc3)NC(=O)[C@H]([C@@H](C)O)NC2=O)cc1` (H-CKFF[dW][X1]TFTSC-OH; disulfide 1-11), the IC50 was 130 nM in assay [1]; greater than 1000 nM in assay [2]; greater than 1000 nM in assay [3]; greater than 1000 nM in assay [4]; 381 nM in assay [5].

Consider `CC(C)NCc1ccc(C[C@@H]2NC(=O)[C@@H](Cc3ccc4ccccc4c3)NC(=O)[C@H](Cc3ccccc3)NC(=O)[C@H](Cc3ccccc3)NC(=O)[C@H](CCCCN)NC(=O)[C@@H](NC(=O)CCc3ccc(O)cc3)CSSC[C@@H](C(=O)O)NC(=O)[C@H](CO)NC(=O)[C@H]([C@@H](C)O)NC(=O)[C@H](Cc3ccccc3)NC(=O)[C@H]([C@@H](C)O)NC2=O)cc1`, for which the IC50 is 563 nM in assay [1]; greater than 10000 nM in assay [2]; greater than 10000 nM in assay [3]; greater than 1000 nM in assay [4]; greater than 1000 nM in assay [5].

A word on the IC50: it is the concentration needed to halve the response being measured. Low readings indicate greater potency, high ones weaker potency.
